Test results from patent US8658664B2 (The Board of Regents of the University of Texas System, priority 2008, dated 2014).
Structures can show the parent of a compound that is named as a salt.

What was measured:
[1] = system: pancreatic cancer cell line ASPC-1; assay: Orthotopic mouse model for pancreatic cancer metastasis; type: in vivo; details: ASPC-1-GFP injected into pancreas of nude mice; 20 mice per group; saline control 60%
Description: An orthotopic mouse model for pancreatic cancer metastasis was established to test the effect of Cyc-T on pancreatic cancer. Green flourescent protein (GFP) was expressed in pancreatic cancer cell line ASPC-1, and then injected into pancreas of nude mice.
The effect of cyc-T was tested in the mouse model for pancreatic cancer metastasis described supra.

[2] = system: basal cell carcinomas (BCC); assay: Skin tumor shrinkage in mouse BCC models, topical application; type: in vivo; details: topical application for 21 days; K14 Ptch1 knockout and K14 SmoM2-YFP mice
Description: Quantitative analysis was performed to calculate the percentage of tumor area in a given tissue area. Eight areas were used to measure the average value from each group, which was compared for the efficacy of the drugs.

[3] = system: hedgehog signaling; assay: Motor neuron differentiation and embryonic body formation from embryonic stem cells; type: cell-based
Text: To test stem cell functions, motor neuron differentiation experiments were used. First embryonic stem cells were used to form stem cell sphere (embryonic bodies, EB). In the presence of retinoic acid (RA) and sonic hedgehog or SMO agonist purmorphamine (AG), several types of neurons can be differentiated. These neurons can be distinguished by distinct markers. Hb9 is regarded as a marker for motor neuron (FIG. 6A).

**Q.** Which results are given for `CC1=C2CC3C(CC=C4CC(O)CCC43C)C2CCC12OC1CC(C)CNC1C2C` (stereo not shown) [Cyclopamine tartrate]?
**A.** frequency of tumor metastasis [1]: 32%; efficacy on hedgehog signaling-mediated skin tumors (percentage of tumor area in tissue area) [2]: very effective inhibitor for hedgehog signaling-mediated tumors; inhibition of hedgehog signaling / motor neuron differentiation (Hb9 marker) ([3]; embryonic bodies with retinoic acid and sonic hedgehog or purmorphamine, compared with KAAD-cyclopamine): as effective as KAAD-cyclopamine; number and size of embryonic bodies (EBs) ([3]; embryonic stem cell spheres, DAPI fluorescent microscopy): reduces the number and the size of EBs
